Test results taken from ChEMBL document CHEMBL3217583, “The MEP pathway and the development of inhibitors as potential anti-infective agents” (Medchemcomm, 2012).

Assays:
[1] = Inhibition of recombinant Pseudomonas aeruginosa DXS expressed in Escherichia coli by spectrophotometric analysis
[2] = Inhibition of Escherichia coli DXS
[3] = Inhibition of Escherichia coli IspF by fluorescence titration assay
[4] = Inhibition of Escherichia coli IspC
[5] = target: T1, 2-C-methyl-D-erythritol 4-phosphate cytidylyltransferase, chloroplastic (Arabidopsis thaliana, UniProt P69834); test: Inhibition of Arabidopsis thaliana IspD
T1 sequence (P69834 whole entry): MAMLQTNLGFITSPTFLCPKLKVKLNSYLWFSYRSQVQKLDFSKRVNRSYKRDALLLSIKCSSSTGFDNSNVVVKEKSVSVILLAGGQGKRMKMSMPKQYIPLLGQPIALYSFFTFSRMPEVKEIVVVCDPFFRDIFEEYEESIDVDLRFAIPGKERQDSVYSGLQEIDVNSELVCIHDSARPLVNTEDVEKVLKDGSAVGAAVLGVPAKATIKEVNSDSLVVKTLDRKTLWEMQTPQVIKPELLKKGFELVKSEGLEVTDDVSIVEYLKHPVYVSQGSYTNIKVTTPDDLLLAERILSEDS

[6] = Inhibition of Escherichia coli IspE by CDP-ME-coupled photometric analysis
[7] = Inhibition of Escherichia coli IspE
[8] = Inhibition of Escherichia coli IspF
[9] = target: 2-C-methyl-D-erythritol 2,4-cyclodiphosphate synthase (Mycobacterium tuberculosis (strain ATCC 25618 / H37Rv), UniProt P9WKG5); test: Inhibition of Mycobacterium tuberculosis H37Rv IspF expressed in Escherichia coli XL1-Blue measured for 30 mins by photometric plate reader analysis
2-C-methyl-D-erythritol 2,4-cyclodiphosphate synthase, sequence (P9WKG5 whole entry): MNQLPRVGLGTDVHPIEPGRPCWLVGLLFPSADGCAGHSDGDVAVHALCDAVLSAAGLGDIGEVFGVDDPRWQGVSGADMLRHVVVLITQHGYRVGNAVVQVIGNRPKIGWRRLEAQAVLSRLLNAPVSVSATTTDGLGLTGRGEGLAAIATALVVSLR

[10] = Inhibition of recombinant Plasmodium falciparum IspF measured for 30 mins by photometric plate reader analysis
[11] = Inhibition of IspD (unknown origin)
[12] = Inhibition of Aquifex aeolicus IspH expressed in Escherichia coli BL21(DE3) using HMBPP as substrate preincubated for 10 mins followed by substrate addition
[13] = Inhibition of Chlamydomonas DXS
[14] = Competitive inhibition of Escherichia coli IspG expressed in Escherichia coli BL21(DE3) using MEcPP as substrate preincubated for 10 mins followed by substrate addition by Michaelis-Menten equation analysis
[15] = Inhibition of Aquifex aeolicus IspH expressed in Escherichia coli BL21(DE3)

O=C(O)C(=O)CF
IC50 [1]: 400 µM
IC50 [2]: 80 µM

CN(C)c1cccc2c(S(=O)(=O)NCCOP(=O)(O)OP(=O)(O)OC[C@H]3O[C@@H](n4ccc(N)nc4=O)[C@H](O)[C@@H]3O)cccc12
IC50 [3]: 3 mM

CC(=O)N(O)CCCP(=O)(O)O
IC50 [4]: 50 nM

Oc1c(Cc2ccccc2)c(Cl)nc2ncnn12
IC50 [5]: 140 nM

Nc1ccn([C@@H]2O[C@H](CNC(=O)CCc3nc4ccccc4[nH]3)[C@@H](O)[C@H]2O)c(=O)n1
IC50 [6]: 1.67 mM

CCS(=O)(=O)NCC#Cc1cn(C2CCCS2)c(=O)nc1N (stereo unspecified)
IC50 [7]: 6 µM

Nc1ccn(Cc2ccc(CNC(=O)c3ccccc3)c3ccccc23)c(=O)n1
IC50 [8]: 450 µM

CCOC(=O)C1=C(C)N=c2s/c(=C\c3cc(Br)c(O)c(Br)c3)c(=O)n2C1c1cccs1 (stereo unspecified)
IC50 [9]: 6.1 µM
IC50 [10]: 9.6 µM

O=P(O)(O)OC[C@@H](O)[C@@H](O)CO
IC50 [11]: 1.36 mM

C#CCCOP(=O)(O)OP(=O)(O)O [BUT-3-YNYL DIPHOSPHATE]
IC50 [12]: 450 nM

O=CN(O)CCCP(=O)(O)O [FOSMIDOMYCIN]
IC50 [4]: 35 nM

CC1(C)C(=O)ON(Cc2ccccc2Cl)C1=O [KETOCLOMAZONE]
IC50 [13]: 100 µM

C#CCOP(=O)(O)OP(=O)(O)O [PROP-2-YNYL DIPHOSPHATE]
IC50 [14]: 750 nM

O=P(O)(O)OP(=O)(O)OCCc1cccnc1 [PYRIDIN-3-YL-ETHYL-DIPHOSPHATE]
IC50 [15]: 9.1 µM
